# Assay results taken from patent publication US9980949B2, “SNS-595 and methods of using the same” (Sunesis Pharmaceuticals, Inc., priority 2004, dated 2018).
# How the values were obtained:
# HCT116 cells = assay: Combination studies with SNS-595, MTT assay, median-effect Combination Index; format: cell-based; details: combination with SNS-595 at constant ratio, 72 hours, <0.90 synergistic, 0.90-1.10 additive, >1.10 antagonistic
# Method: The final DMSO concentration was 1% in the assay plate. The treated cells were incubated for 72 hours at 37° C., 5% CO2 before adding 20 μl/well 3-[4,5-dimethylthiazol-2-yl]-2,5-diphenyltetrazolium bromide (MTT) for 1 hour followed by 100 μl/well N,N-dimethyl formamide/SDS lysis buffer for at least 16 hours. The plates were read for absorbance at a wavelength of 595 nm. The data was worked up using the median-effect method that quantifies the interaction using a Combination Index (calculated using the software for dose effect analysis, Calcusyn V2(Biosoft). A combination is said to be additive if it yields a Combination Index of 0.90-1.10. A combination is said to be synergistic if it yields a Combination Index less than 0.90 and a combination is said to be antagonistic if it yields a Combination Index of more than 1.10. All Combination Index calculations were at a Fa value of 0.5, the point where 50% of the cells were dead. See Table 2.
# [1] = Solubility in acidic compositions; format: physicochemical; details: acidic compositions (<pH 4)
# Method: An illustrative example of a suitable composition comprises: 10 mg SNS-595 per mL of aqueous solution of 4.5% sorbitol that is adjusted to pH 2.5 with methanesulfonic acid. One protocol for making such a solution includes the following for making a 100 mg/10 mL presentation: 100 mg of SNS-595 and 450 mg D-sorbitol are added to distilled water; the volume is brought up to a volume of 10 mL; and the pH of the resulting solution is adjusted to 2.5 with methanesulfonic acid. The resulting composition is also suitable for lyophilization. The lyophilized form is then reconstituted with sterile water to the appropriate concentration prior to use.
# [2] = test system: cells where G2 arrest is abrogated; assay: Cytotoxicity in cells where G2 arrest is abrogated by caffeine; format: cell-based; details: caffeine inhibits both ATM and ATR
# Description: As shown by FIG. 1, ATM, ATR, and DNA-PK are three central DNA sensors/effectors that depending on the level of DNA damage that is detected within an individual cell, direct the cell into one of several outcomes including DNA repair, G2 arrest or apoptosis.
# [3] = Pharmacokinetics of SNS-595 in cancer patients; format: in vivo, human; details: for C0: human, intravenous
# Method: SNS-595 was administered to enrolled patients for up to six cycles. A cycle is defined as a three-week period, with SNS-595 administered on the first day of each cycle (day 0), followed by at least 21 days of observation. SNS-595 was administered to cohorts of at least 3 patients and dose escalation occurred by sequential cohort.
# topoisomerase II = assay: Catalytic inhibition of topoisomerase II (decatenation and relaxation of supercoiled DNA); format: biochemical; details: inhibits decatenation and relaxation of supercoiled DNA, no formation of cleavable complexes
# Description: (§1) SNS-595 is a cell cycle inhibitor and arrests cells at the G2 interface. Initially, the activity of SNS-595 was believed due to topoisomerase II inhibition.
# [4] = test system: 2-deoxyglucose treated cells; assay: Activity in cells with topoisomerase II levels modulated by 2-deoxyglucose; format: cell-based; details: topoisomerase II levels modulated using 2-deoxyglucose
# Description: as §1
# DNA-PK pathway [5] = assay: Pharmacodynamic study: DNA-PK pathway members in HCT116 xenograft tumors (Western blots); format: in vivo, Nu/nu mice; details: IV bolus 20 or 40 mg/kg, 1-24 hours post dose, FIG. 3
# Method: Nu/nu mice (ca. 25 grams) were injected with HCT116 cells (which were obtained from the ATCC) in the hind flank at 5 million cells with 50% matrigel (Becton-Dickinson). Tumors were allowed to grow to 400 mm^3. Xenograft bearing animals were then given either an IV bolus injection of SNS-595 (20 or 40 mg/kg) in the tail vein or a saline vehicle. At prescribed time points (1, 2, 4, 8, 16, and 24 hours post dose), animals were anesthetized with CO2, blood was taken via terminal cardiac puncture, and animals were sacrificed. Tumors were excised, pulverized using liquid nitrogen-cooled mortar and pestle, and flash-frozen in liquid nitrogen. Tumor lysates were made from pulverized samples by addition of lysis buffer. The protein concentrations of the DNA-PK pathway members were determined by Western blots. Approximately 25 micrograms of protein was loaded per lane on an SDS-PAGE gel. Proteins were separated by gel electrophoresis, blotted onto nitrocellulose membranes, and detected using the following antibodies: H2AX, phosphorylated at […] (Cell Signaling, catalog no. 2577L); p53, phosphorylated at S15 (Cell Signaling, catalog no. 9284S); p53, phosphorylated at S37 (Cell Signaling, catalog no. 9289S); p21 (Cell Signaling, catalog no. 2946); cdc2, phosphorylated at Y15 (Calbiochem, catalog no. 219437); cyclin B (Santa Cruz, catalog no. sc-594 (H-20)); p73, phosphorylated at […] […]
# DNA-PK pathway [6] = assay: Dose-dependent responses of DNA-PK pathway members in HCT 116 cells (FIG. 2); format: cell-based; details: H2AX, c-Abl, p53, p73, p21, caspase-9, caspase-3
# Description: (§2) This damage impedes the ability of the cell to synthesize DNA and lengthens the time the cell spends in the S phase. […] When the DNA damage is sufficiently severe such that the double-strand breaks cannot be repaired through non-homologous end joining (NHEJ), the cell rapidly enters apoptosis. Some cells are able to reach the G2 phase but are subsequently arrested (mediated by cdc2/cyclin B) because the cells are too damaged to enter into the M phase and also eventually becomes apoptotic.
# various cells = assay: Cellular potency (EC50) in various cells; format: cell-based
# Description: as §1
# [7] = test system: HCT-116 colon cancer cells; assay: Inhibition of cell growth (MTT) by SNS-595 in absence and presence of wortmannin; format: cell-based; details: HCT-116 cells, 100 nM wortmannin for 8-16 hours, 72 hours
# Method: (§3) HCT-116 colon cancer cells were plated at a density of approximately […] with 100 μl/well of RPMI-1640 media (supplemented with 10% fetal bovine serum, 1% antibiotic/antimycotic, and 1.5% sodium bicarbonate) in a 96-well clear tissue-culture treated plate for 24 hours at 37° C., 5% CO2. Some cells were treated with 100 nM wortmannin for 8-16 hours. SNS-595 was then added as a serial dilution, and cells were incubated for 72 hours at 37° C., 5% CO2. MTT (20 μl/well of a 5 mg/ml stock solution) was added for 1 hour, followed by N,N-dimethyl formamide/SDS lysis buffer for at least 16 hours. Absorbance was monitored at 595 nm and data were fit by nonlinear regression to determine the inhibition of cell growth (IC50) by SNS-595 in the absence and presence of wortmannin. […] Similar results were seen when DNA-PK null cell line (approximately a 10 fold sensitization) was used instead of HCT-116 cells.
# [8] = test system: stable variant of HCT-116 cells; assay: Sensitivity of a stable SNS-595-resistant variant of HCT-116 cells; format: cell-based; details: stable variant with induced resistance
# Description: Consistent with this mechanism, cells with induced resistance to SNS-595 also have alterations in the DNA-PK pathway. […] Conversely, decreased levels of DNA-PK or its activity (e.g. in the presence of an inhibitor) is associated with an increased sensitivity to SNS-595.
# non-proliferating cells = format: cell-based
# Description: as §2, with “Treatment with SNS-595 results in an increase in the number of double-strand DNA breaks that form during the S phase. This” for “This”
# DNA-PK null cell line = assay: Inhibition of cell growth (MTT) by SNS-595 in DNA-PK null cell line; format: cell-based; details: DNA-PK null cell line instead of HCT-116 cells
# Method: as §3
smiles,measurement,setting,value
Cn1cnc2c(NCc3ccccc3)nc(NCCO)nc21 [Olomucine],Combination Index @ Fa = 0.5,HCT116 cells,1.00
CC[C@H](CO)Nc1nc(NCc2ccccc2)c2ncn(C(C)C)c2n1 [Roscovitine],Combination Index @ Fa = 0.5,HCT116 cells,1.10
COC1=C2C[C@@H](C)C[C@H](OC)[C@H](O)[C@@H](C)/C=C(\C)[C@H](OC(N)=O)[C@@H](OC)/C=C\C=C(/C)C(=O)NC(=CC1=O)C2=O [Geldanamycin],Combination Index @ Fa = 0.5,HCT116 cells,0.47
CC(=O)O[C@@]12CO[C@@H]1C[C@H](O)[C@@]1(C)C(=O)[C@H](O)C3=C(C)[C@@H](OC(=O)[C@H](O)[C@@H](NC(=O)OC(C)(C)C)c4ccccc4)C[C@@](O)([C@@H](OC(=O)c4ccccc4)[C@H]21)C3(C)C [Docetaxel],Combination Index @ Fa = 0.5,HCT116 cells,2.00
N.N.[Cl][Pt][Cl] [Cisplatin],Combination Index @ Fa = 0.5,HCT116 cells,0.54
N.N.O=C([O-])C1(C(=O)[O-])CCC1.[Pt+2] [Carboplatin],Combination Index @ Fa = 0.5,HCT116 cells,0.54
"CN[C@H]1CN(c2ccc3c(=O)c(C(=O)O)cn(-c4nccs4)c3n2)C[C@@H]1OC [SNS-595, (+)-1,4-dihydro-7-[(3S,4S)-3-methoxy-4-(methylamino)-1-pyrrolidinyl]-4-oxo-1-(2-thiazoyl)-1,8-naphthyridine-3-carboxylic acid]",solubility,[1],increased solubility
same,"difference in EC50 values, caffeine-treated (G2 arrest abrogated) versus untreated cells",[2],essentially no difference in EC50 values
same,relation of dose to AUC∞,[3]; dose escalation by sequential cohort,linear with AUC∞
same,C0,"[3]; 3 mg/m2, plasma, dose 3 mg/m^2",153 ng/mL
same,C0,"[3]; 6 mg/m2, plasma, dose 6 mg/m^2",377 ng/mL
same,C0,"[3]; 12 mg/m2, plasma, dose 12 mg/m^2",2890 ng/mL
same,C0,"[3]; 24 mg/m2, plasma, dose 24 mg/m^2",2920 ng/mL
same,C0,"[3]; 48 mg/m2, plasma, dose 48 mg/m^2",1980 ng/mL
same,C0,"[3]; 60 mg/m2, plasma, dose 60 mg/m^2",4800 ng/mL
same,AUCINF_obs,"[3]; plasma, dose 3 mg/m^2",1139.55 ng·h/mL
same,Cl_obs,"[3]; plasma, dose 3 mg/m^2",1.14 mL/min/kg
same,Cmax,"[3]; plasma, dose 3 mg/m^2",138.80 ng/mL
same,HL,"[3]; plasma, dose 3 mg/m^2",16.27 h
same,MRTINF_obs,"[3]; plasma, dose 3 mg/m^2",21.95 h
same,Vss_obs,"[3]; plasma, dose 3 mg/m^2",1.44 L/kg
same,Vz_obs,"[3]; plasma, dose 3 mg/m^2",1.55 L/kg
same,Cl_obs,"[3]; plasma, dose 6 mg/m^2",0.71 mL/min/kg
same,Cmax,"[3]; plasma, dose 6 mg/m^2",347.00 ng/mL
same,HL,"[3]; plasma, dose 6 mg/m^2",20.69 h
same,Vss_obs,"[3]; plasma, dose 6 mg/m^2",1.24 L/kg
same,Vz_obs,"[3]; plasma, dose 6 mg/m^2",1.28 L/kg
same,AUCINF_obs,"[3]; plasma, dose 12 mg/m^2",6329.15 ng·h/mL
same,Cl_obs,"[3]; plasma, dose 12 mg/m^2",0.76 mL/min/kg
same,Cmax,"[3]; plasma, dose 12 mg/m^2",2246.67 ng/mL
same,HL,"[3]; plasma, dose 12 mg/m^2",17.81 h
same,Vss_obs,"[3]; plasma, dose 12 mg/m^2",1.07 L/kg
same,Vz_obs,"[3]; plasma, dose 12 mg/m^2",1.17 L/kg
same,AUCINF_obs,"[3]; plasma, dose 24 mg/m^2",12655.32 ng·h/mL
same,AUClast,"[3]; plasma, dose 24 mg/m^2",11133.03 ng·h/mL
same,Cl_obs,"[3]; plasma, dose 24 mg/m^2",0.83 mL/min/kg
same,Cmax,"[3]; plasma, dose 24 mg/m^2",2703.33 ng/mL
same,HL,"[3]; plasma, dose 24 mg/m^2",16.14 h
same,Vss_obs,"[3]; plasma, dose 24 mg/m^2",1.06 L/kg
same,Vz_obs,"[3]; plasma, dose 24 mg/m^2",1.15 L/kg
same,AUCINF_obs,"[3]; plasma, dose 48 mg/m^2",27347.38 ng·h/mL
same,Cl_obs,"[3]; plasma, dose 48 mg/m^2",0.99 mL/min/kg
same,Cmax,"[3]; plasma, dose 48 mg/m^2",2868.00 ng/mL
same,HL,"[3]; plasma, dose 48 mg/m^2",21.32 h
same,Vss_obs,"[3]; plasma, dose 48 mg/m^2",1.48 L/kg
same,Vz_obs,"[3]; plasma, dose 48 mg/m^2",1.57 L/kg
same,Cl_obs,"[3]; plasma, dose 60 mg/m^2",0.83 mL/min/kg
same,Cmax,"[3]; plasma, dose 60 mg/m^2",4537.50 ng/mL
same,HL,"[3]; plasma, dose 60 mg/m^2",17.63 h
same,Vss_obs,"[3]; plasma, dose 60 mg/m^2",1.08 L/kg
same,Vz_obs,"[3]; plasma, dose 60 mg/m^2",1.20 L/kg
same,IC50,topoisomerase II,~5 µM
same,difference in activity between 2-deoxyglucose treated cells and untreated cells,[4],essentially no difference in activity
same,levels of DNA-PK pathway members in tumors upon treatment,DNA-PK pathway [5],activated in tumors
same,activation of DNA-PK mediated repair and apoptotic cellular machinery,DNA-PK pathway [6],"activates, in a dose dependent manner"
same,"difference in potency, cellular EC50 versus biochemical inhibition of topoisomerase II",various cells,at least a ten-fold difference in increased potency
same,IC50 lower in the presence of wortmannin than in its absence,[7],3-6 fold
same,sensitivity of resistant HCT-116 variant relative to HCT-116 cells,[8],approximately ten fold less sensitive
same,lethality to non-proliferating cells,non-proliferating cells,non-lethal to non-proliferating cells
same,sensitization to SNS-595,DNA-PK null cell line,~10 fold
COC[C@H]1OC(=O)c2coc3c2[C@@]1(C)C1=C(C3=O)[C@@H]2CCC(=O)[C@@]2(C)C[C@H]1OC(C)=O [Wortmannin],Combination Index @ Fa = 0.5,HCT116 cells,0.42
